≈ marks a conversion by molar mass, not a printed value. Where two headings read alike, the source gives them in different places.
Tests used:
Format in all cases: cell-based
[1] = test system: Streptococcus pyogenes 1079; test: MIC, microtiter broth dilution (NCCLS M100-S14), S. pyogenes 1079 (ermB)
Method in brief: (§1)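 Antibacterial activity is expressed as the MIC from broth microdilution. Reading follows the NCCLS M100-S14 performance standards, and stocks are made in DMSO at 40 mg/ml.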

[2] = test system: Streptococcus pneumoniae 1016; test: MIC, microtiter broth dilution (NCCLS M100-S14), S. pneumoniae 1016 (susceptible)
Method in brief: as §1

[3] = test system: Streptococcus pneumoniae 1095; details: microtiter broth dilution
Method in brief: as §1

[4] = test system: Streptococcus pneumoniae 1175; details: microtiter broth dilution
Method in brief: as §1

[5] = test system: Haemophilus influenzae 1218; test: MIC, microtiter broth dilution (NCCLS M100-S14), H. influenzae 1218 (susceptible)
Method in brief: as §1

[6] = S. pneumoniae 1016 (susceptible)
[7] = H. influenzae 1218 (susceptible)

Structure (SMILES)	MIC S. pyogenes 1079 ([1]; S. pyogenes 1079 (ermB)) [µg/mL]	MIC S. pneumo. 1016 [2, 6] [µg/mL]	MIC S. pneumo. 1095 ([3]; S. pneumoniae 1095 (ermB)) [µg/mL]	MIC S. pneumo. 1175 ([4]; S. pneumoniae 1175 (mefA)) [µg/mL]	MIC H. influenzae 1218 [5, 7] [µg/mL]	MIC S. pyogenes 1079 ([1]; Streptococcus pyogenes 1079) [µg/mL]	MIC S. pneumo. 1016 ([2]; Streptococcus pneumoniae 1016) [µg/mL]	MIC S. pneumo. 1095 ([3]; Streptococcus pneumoniae 1095) [µg/mL]	MIC S. pneumo. 1175 ([4]; Streptococcus pneumoniae 1175) [µg/mL]	MIC H. influenzae 1218 ([5]; Haemophilus influenzae 1218) [µg/mL]
CCC1OC(=O)C(C)C(=O)C(C)C(OC2OC(C)CC(N(C)C)C2O)C(C)(OC)CC(C)C(=O)C(C)C2N(CC3CCN(Cc4ccc5cccc(O)c5n4)C3)C(=O)OC12C (stereo not shown) [13.04]	64 (≈ 75 µM)	<0.06	1 (≈ 1.17 µM)	0.25 (≈ 0.293 µM)	1 (≈ 1.17 µM)					
CCC1OC(=O)C(C)C(=O)C(C)C(OC2OC(C)CC(N(C)C)C2O)C(C)(OC)CC(C)C(=O)C(C)C2N(CC3CN(Cc4c[nH]c5ccccc45)C3)C(=O)OC12C (stereo not shown) [4.11]						64 (≈ 78.9 µM)	<0.06	4 (≈ 4.93 µM)	2 (≈ 2.47 µM)	1 (≈ 1.23 µM)
CCC1OC(=O)C(C)C(=O)C(C)C(OC2OC(C)CC(N(C)C)C2O)C(C)(OC)CC(C)C(=O)C(C)C2N(C3CN(Cc4ccnc5ccncc45)C3)C(=O)OC12C (stereo not shown) [Example 1.27, 3-descladinosyl-11,12-dideoxy-6-O-methyl-3-oxo-12,11-(oxycarbonyl-(1-((1,6-naphthyridin-4-yl)-methyl)-azetidin-3-yl)-imino)-erythromycin A]						2 (≈ 2.47 µM)	<0.06	<0.06	0.5 (≈ 0.617 µM)	0.5 (≈ 0.617 µM)
CCC1OC(=O)C(C)C(=O)C(C)C(OC2OC(C)CC(N(C)C)C2O)C(C)(OC)CC(C)C(=O)C(C)C2N(C3CN(Cc4c(C)ccc5ccccc45)C3)C(=O)OC12C (stereo not shown) [Example 1.92, 3-descladinosyl-11,12-dideoxy-6-O-methyl-3-oxo-12,11-(oxycarbonyl-(1-(2-methylnaphthalene-1-methyl)-azetidin-3-yl)-imino)erythromycin A]						2 (≈ 2.43 µM)	<0.063	0.125 (≈ 0.152 µM)	<0.063	2 (≈ 2.43 µM)
CCC1OC(=O)C(C)C(=O)C(C)C(OC2OC(C)CC(N(C)C)C2O)C(C)(OC)CC(C)C(=O)C(C)C2N(C3CN(S(=O)(=O)c4cccc(-c5nnc(C)o5)c4)C3)C(=O)OC12C (stereo not shown) [Example 3.60, 3-descladinosyl-11,12-dideoxy-6-O-methyl-3-oxo-12,11-(oxycarbonyl-(1-(3-(5-methyl-1,3,4-oxadiazol-2-yl)benzenesulfonyl)-azetidin-3-yl)imino)erythromycin A]						4 (≈ 4.49 µM)	<0.06	<0.06	0.12 (≈ 0.135 µM)	2 (≈ 2.25 µM)
CCC1OC(=O)C(C)C(=O)C(C)C(OC2OC(C)CC(N(C)C)C2O)C(C)(OC)CC(C)C(=O)C(C)C2N(C3CN(Cc4ccncc4)C3)C(=O)OC12C (stereo not shown) [Example 1.04, (pyridin-4-yl)methyl]						>64.00	<0.06	0.12 (≈ 0.158 µM)	0.5 (≈ 0.659 µM)	0.25 (≈ 0.329 µM)
CC[C@H]1OC(=O)[C@H](C)C(=O)[C@H](C)[C@@H](O[C@@H]2O[C@H](C)C[C@H](N(C)C)[C@H]2O)[C@](C)(OC)C[C@@H](C)C(=O)[C@H](C)[C@H]2N(C3CCN(Cc4cccc5[nH]cnc45)C3)C(=O)O[C@]12C.O=CO (stereo partly shown) [Example 8.01, (1H-benzo[d]imidazo-4-yl)methyl]	>64.00	<0.06	>64.00	0.25	8					
CC[C@H]1OC(=O)[C@H](C)C(=O)[C@H](C)[C@@H](O[C@@H]2O[C@H](C)C[C@H](N(C)C)[C@H]2O)[C@](C)(OC)C[C@@H](C)C(=O)[C@H](C)[C@H]2N(CC3(C)CN(Cc4ccc5ncccc5c4)C3)C(=O)O[C@]12C [6.01]						>64.00	<0.06	0.5 (≈ 0.597 µM)	0.5 (≈ 0.597 µM)	1 (≈ 1.19 µM)
CCC1OC(=O)C(C)C(=O)C(C)C(OC2OC(C)CC(N(C)C)C2O)C(C)(OC)CC(C)C(=O)C(C)C2N(C3CN(Cc4c(Cl)cnc5ncccc45)C3)C(=O)OC12C (stereo not shown) [Example 1.76, 3-descladinosyl-11,12-dideoxy-6-O-methyl-3-oxo-12,11-(oxycarbonyl-(1-(3-chloro-1,8-naphthyridine-4-methyl)-azetidin-3-yl)-imino)-erythromycin A]						0.125 (≈ 0.148 µM)	<0.063	<0.063	<0.063	0.5 (≈ 0.592 µM)
CCC1OC(=O)C(C)C(=O)C(C)C(OC2OC(C)CC(N(C)C)C2O)C(C)(OC)CC(C)C(=O)C(C)C2N(CC3CCN(Cc4ccc(OC)nc4)CC3)C(=O)OC12C (stereo not shown) [15.04]	>64.00	<0.06	>64.00	0.5 (≈ 0.602 µM)	16 (≈ 19.3 µM)					
CCC1OC(=O)C(C)C(=O)C(C)C(OC2OC(C)CC(N(C)C)C2O)C(C)(OC)CC(C)C(=O)C(C)C2N(C3CN(C(=O)Nc4ccc5ncccc5c4)C3)C(=O)OC12C (stereo not shown) [Example 2.05, N-(quinolin-6-yl) aminocarbonyl]						64 (≈ 76.4 µM)	<0.06	16 (≈ 19.1 µM)	<0.06	0.5 (≈ 0.597 µM)
CCC1OC(=O)C(C)C(=O)C(C)C(OC2OC(C)CC(N(C)C)C2O)C(C)(OC)CC(C)C(=O)C(C)C2N(C3CN(C(=O)c4cccc5[nH]c(C)nc45)C3)C(=O)OC12C (stereo not shown) [Example 2.02]						>64.00	<0.06	>64.00	2 (≈ 2.42 µM)	2 (≈ 2.42 µM)
CCC1OC(=O)C(C)C(=O)C(C)C(OC2OC(C)CC(N(C)C)C2O)C(C)(OC)CC(C)C(=O)C(C)C2N(CC3CCN(Cc4c[nH]c5ncccc45)C3)C(=O)OC12C [Example 11.05, 3-descladinosyl-11,12-dideoxy-6-O-methyl-3-oxo-12,11-(oxycarbonyl-(1-((1H-pyrrolo[2,3-b]pyridin-3-yl)-methyl)-((S)-pyrrolidin-3-yl)-methyl)-imino)-erythromycin A]	4 (≈ 4.84 µM)	<0.06	<0.06	0.5 (≈ 0.605 µM)	0.5 (≈ 0.605 µM)					
CCC1OC(=O)C(C)C(=O)C(C)C(OC2OC(C)CC(N(C)C)C2O)C(C)(OC)CC(C)C(=O)C(C)C2N(CC3CCN(Cc4cccc(OC)n4)CC3)C(=O)OC12C (stereo not shown) [15.05]	>64.00	<0.06	>64.00	0.5 (≈ 0.602 µM)	8 (≈ 9.63 µM)					
CCC1OC(=O)C(C)C(=O)C(C)C(OC2OC(C)CC(N(C)C)C2O)C(C)(OC)CC(C)C(=O)C(C)C2N(C3CN(S(=O)(=O)c4ccc5c(c4)CCC5)C3)C(=O)OC12C (stereo not shown) [Example 3.83]						32 (≈ 37.7 µM)	<0.06	<0.06	<0.06	1 (≈ 1.18 µM)
CCC1OC(=O)C(C)C(=O)C(C)C(OC2OC(C)CC(N(C)C)C2O)C(C)(OC)CC(C)C(=O)C(C)C2N(C3CN(S(=O)(=O)c4ccc(OC)c5ncccc45)C3)C(=O)OC12C (stereo not shown) [Example 3.101, 3-descladinosyl-11,12-dideoxy-6-O-methyl-3-oxo-12,11-(oxycarbonyl-(1-(8-methoxyquinoline-5-sulfonyl)-azetidin-3-yl)-imino)-erythromycin A]						<0.063	<0.063	<0.063	<0.063	0.125 (≈ 0.141 µM)
CCC1OC(=O)C(C)C(=O)C(C)C(OC2OC(C)CC(N(C)C)C2O)C(C)(OC)CC(C)C(=O)C(C)C2N(C3CN(S(=O)(=O)c4c[nH]c(=O)[nH]c4=O)C3)C(=O)OC12C (stereo not shown) [Example 3.30, 1,2,3,4-tetrahydro-2,4-dioxopyrimidine-5-sulfonyl]						>64.00	1 (≈ 1.19 µM)	>64.00	32 (≈ 38 µM)	32 (≈ 38 µM)

— patent US7462600B2, “Macrolides” (Pfizer Inc, priority 2004, dated 2008)
